The test system of this assay is isolated rat aorta. Kind of assay: Test with the use of isolated rat aorta (relaxation of potassium chloride contraction). Conditions: read-out: Rat aorta IC50. The method, then:
The thoracic aorta was taken out from male Sprague Dawley rats weighing 450 to 600 g and cut into circular samples of 2 mm in width. […] The contraction reactions of the samples were isometrically recorded with FD pick-up. After 1 to 1.5 hours of equilibration, 30 mM potassium chloride was added to contract the tissue. […] As the test compounds, the invention compounds obtained in the above Examples were employed.

The mark [1] stands for this setting: relaxation of continuous contraction due to 30 mM potassium chloride, thoracic aorta of male Sprague Dawley rats.

Like-named read-outs stand apart in the source and are kept apart here.

As usually defined, the IC50 is the concentration that gives 50% inhibition. As to `COc1ccc(CN2CCN([n+]3cc([N-]C(=O)CSC(C)=O)on3)CC2)c(OC)c1OC` [Example 50, N-((Acetylthio)acetyl)-3-(4-(2,3,4-trimethoxyphenylmethyl)piperazin-1-yl)sydnonimine], under setting [1], the IC50 stood at 140 nM.

In the case of `C[C@H](CSC(=O)c1ccccc1)C(=O)[N-]c1c[n+](N(C)C)no1` [Example 5, N-((S)-3-(Benzoylthio)isobutyryl)-3-dimethylaminosydnonimine], the IC50 under setting [1] amounted to 570 nM.

As for `CC(=O)SC[C@@H](C)C(=O)[N-]c1c[n+](N2CCN(C(=O)CSc3cc(C(C)(C)C)c(O)c(C(C)(C)C)c3)CC2)no1` [Example 24-D], the IC50 under setting [1] was determined as 470 nM.

Turning to `COc1cc(CC(=O)N2CCN([n+]3cc([N-]C(=O)[C@H](C)CSC(C)=O)on3)CC2)cc(OC)c1OC` [Example 25], the IC50 under setting [1] was 630 nM.

Regarding `CC(=O)SC[C@@H](C)C(=O)[N-]c1c[n+](N2CCN(C(=O)[C@@H]3CSC(=O)N3)CC2)no1` [Example 28, N-((S)-3-(Acetylthio)isobutyryl)-3-(4-((R)-2-oxo-4-thiazolidinecarbonyl)piperazin-1-yl)sydnonimine], the IC50 under setting [1] worked out at 710 nM.

In the case of `COc1ccc(CN2CCN([n+]3cc([N-]C(=O)CSc4cc(C(C)(C)C)c(O)c(C(C)(C)C)c4)on3)CC2)cc1OC` [Example 47, N-((3,5-Di-t-butyl-4-hydroxyphenylthio)acetyl)-3-(4-(3,4-dimethoxyphenylmethyl)piperazin-1-yl)sydnonimine], the IC50 under setting [1] came out at 940 nM.

`COc1cc(CN2CCN([n+]3cc([N-]C(=O)CSC(=O)c4ccccc4)on3)CC2)cc(OC)c1OC` [Example 49, N-((Benzoylthio)acetyl)-3-(4-(3,4,5-trimethoxyphenylmethyl)piperazin-1-yl)sydnonimine]: under setting [1], the IC50 was 46 nM.

In the case of `CC(=O)SC[C@@H](C)C(=O)[N-]c1c[n+](N2CCOCC2)no1` [Example 67, N-((S)-3-(Acetylthio)isobutyryl)-3-morpholinosydnonimine], the IC50 under setting [1] was determined as 540 nM.

With `CC(=O)SC[C@@H](C)C(=O)[N-]c1c[n+](N2CCN(C(=O)[C@H](C)CSC(=O)c3ccccc3)CC2)no1` [Example 29, N-((S)-3-(Acetylthio)isobutyryl)-3-(4-((S)-3-(benzoylthio)isobutyryl)piperazin-1-yl)sydnonimine], the IC50 under setting [1] was 630 nM.

As to `CC(=O)SCC(=O)[N-]c1c[n+](N2CCN(C(=O)CSC(C)=O)CC2)no1` [Example 38-C, N-((Acetylthio)acetyl)-3-(4-((acetylthio)acetyl)piperazin-1-yl)sydnonimine], the IC50 under setting [1] was determined as 230 nM.

Turning to `COc1ccc(CN2CCN([n+]3cc([N-]C(=O)CSC(=O)c4ccccc4)on3)CC2)c(OC)c1OC` [Example 51, N-((Benzoylthio)acetyl)-3-(4-(2,3,4-trimethoxyphenylmethyl)piperazin-1-yl)sydnonimine], the IC50 under setting [1] amounted to 300 nM.

As for `COc1cc(CCN2CCN([n+]3cc([N-]C(=O)[C@H](C)CSC(=O)c4ccccc4)on3)CC2)cc(OC)c1OC` [Example 45, N-((S)-3-(Benzoylthio)isobutyryl)-3-(4-(2-(3,4,5-trimethoxyphenyl)ethyl)piperazin-1-yl)sydnonimine], the IC50 under setting [1] was found to be 780 nM.

Consider `CC(C)(C)c1cc(SCC(=O)N2CCN([n+]3cc([N-]C(=O)CSC(=O)c4ccccc4)on3)CC2)cc(C(C)(C)C)c1O` [Example 33, N-((Benzoylthio)acetyl)-3-(4-(3,5-di-t-butyl-4-hydroxyphenylthio)acetylpiperazin-1-yl)sydnonimine], for which the IC50 under setting [1] is 180 nM.

For `COc1ccccc1N1CCN([n+]2cc([N-]C(=O)[C@H](C)CSC(=O)c3ccccc3)on2)CC1` [Example 11, N-((S)-3-(Benzoylthio)isobutyryl)-3-(4-(2-methoxyphenyl)piperazin-1-yl)sydnonimine], under setting [1], the IC50 was 160 nM.

Take `COc1cc(CCN(C)[n+]2cc([N-]C(=O)[C@H](C)CSC(=O)c3ccccc3)on2)cc(OC)c1OC` [Example 64, N-((S)-3-(Benzoylthio)isobutyryl)-3-(N'-(2-(3,4,5-trimethoxyphenyl)ethyl)-N'-methylamino)sydnonimine]: the IC50 under setting [1] came to 910 nM.

For `C[C@H](CSC(=O)c1ccccc1)C(=O)[N-]c1c[n+](N2CCOCC2)no1` [Example 4, N-((S)-3-(Benzoylthio)isobutyryl)-3-morpholinosydnonimine], the IC50 under setting [1] was 23 nM.

For `CC1CCCC(C)N1[n+]1cc([N-]C(=O)CSc2cc(C(C)(C)C)c(O)c(C(C)(C)C)c2)on1` (stereo not drawn) [Example 13, N-((3,5-Di-t-butyl-4-hydroxyphenylthio)acetyl)-3-(2,6-dimethylpiperidin-1-yl)sydnonimine], under setting [1], the IC50 was determined as 550 nM.

Turning to `C[C@H](CSC(=O)c1ccccc1)C(=O)[N-]c1c[n+](N2CCN(CCSC(=O)c3ccccc3)CC2)no1` [Example 52-B, N-((S)-3-(Benzoylthio)isobutyryl)-3-(4-(2-(benzoylthio)ethyl)piperazin-1-yl)sydnonimine], the IC50 under setting [1] was found to be 420 nM.

In the case of `COc1cc(CN2CCN([n+]3cc([N-]C(=O)CSC(C)=O)on3)CC2)cc(OC)c1OC` [Example 48, N-((Acetylthio)acetyl)-3-(4-(3,4,5-trimethoxyphenylmethyl)piperazin-1-yl)sydnonimine], under setting [1], the IC50 was 110 nM.

For `COc1cc(CC(=O)N2CCN([n+]3cc([N-]C(=O)CSC(C)=O)on3)CC2)cc(OC)c1OC` [Example 40, N-((Acetylthio)acetyl)-3-(4-((3,4,5-trimethoxyphenyl)acetyl)piperazin-1-yl)sydnonimine], the concentration for half-maximal inhibition (IC50) was 280 nM.

With `O=C(CSC(=O)c1ccccc1)[N-]c1c[n+](N2CCN(C(=O)CSC(=O)c3ccccc3)CC2)no1` [Example 31], the IC50 under setting [1] was 36 nM.

(Values after patent publication EP0903346A1, “SYDNONE IMINE DERIVATIVES” (Chugai Seiyaku Kabushiki Kaisha, priority 1995, dated 1997).)
